Tests used:
Assay type in all cases: toxicity, cell-based
U2OS = assay: Incucyte cell viability with U2OS; conditions: human, 10 µM, compound concentration 10 uM
Fibroblast = assay: Incucyte cell viability with human fibroblast; conditions: 10 µM, compound concentration 10 uM
HEK-293T = assay: Incucyte cell viability with HEK293T; conditions: human, 10 µM, compound concentration 10 uM
Note: unitless GR value; below 1 slowed growth and below 0 cell loss.

Row | SMILES | Growth Rate (U2OS; 0 h, replicate number 2) | Growth Rate (U2OS; 6 h, replicate number 1) | Growth Rate (U2OS; 6 h, replicate number 2) | Growth Rate (U2OS; 18 h, replicate number 2) | Growth Rate (U2OS; 24 h, replicate number 2) | Growth Rate (Fibroblast; 0 h, replicate number 2) | Growth Rate (Fibroblast; 6 h, replicate number 1) | Growth Rate (Fibroblast; 12 h, replicate number 1) | Growth Rate (HEK-293T; 0 h, replicate number 1) | Growth Rate (U2OS; 12 h, replicate number 1) | Growth Rate (U2OS; 18 h, replicate number 1) | Growth Rate (U2OS; 24 h, replicate number 1) | Growth Rate (Fibroblast; 18 h, replicate number 2) | Growth Rate (Fibroblast; 24 h, replicate number 2) | Growth Rate (HEK-293T; 6 h, replicate number 1) | Growth Rate (HEK-293T; 6 h, replicate number 2) | Growth Rate (HEK-293T; 12 h, replicate number 2) | Growth Rate (HEK-293T; 18 h, replicate number 1) | Growth Rate (HEK-293T; 18 h, replicate number 2) | Growth Rate (HEK-293T; 0 h, replicate number 2) | other results
1 | Cc1cccc(-c2nn(C(=S)Nc3ccccc3)cc2-c2ccnc3ccccc23)n1 | -0.94 | 0.88 | 0.81 | 0.98 | 0.88 | -1 | 1 | -1 | 0.78 |  |  |  |  |  |  |  |  |  |  |  | 
2 | CC(C)(O)C(=O)N1CCN(c2ccc(C(F)(F)F)c(C3=C(c4c[nH]c5ccccc45)C(=O)NC3=O)c2)CC1 |  |  |  | 0.8 | 0.83 | -1 | -0.74 | -1 | 0.94 | 0.93 | 0.9 | 0.76 | 0.73 | 0.3 | 0.81 | 0.29 | 0.57 | 0.83 | 0.49 |  | Growth Rate (U2OS; 0 h, replicate number 1): -0.61; Growth Rate (HEK-293T; 24 h, replicate number 1): 0.61; Growth Rate (HEK-293T; 24 h, replicate number 2): 0.42
3 | CCn1c(-c2nonc2N)nc2c(C#CC(C)(C)O)ncc(OCC3CCCNC3)c21 (stereo not given) |  |  | 0.47 | 0.84 | 0.9 |  |  |  | 0.09 |  |  | 0.96 | 0.47 | 0.58 | -0.57 | -0.49 | -0.05 | -0.26 | 0.15 | 0.47 | Growth Rate (U2OS; 12 h, replicate number 2): 0.86; Growth Rate (Fibroblast; 0 h, replicate number 1): -0.85; Growth Rate (Fibroblast; 6 h, replicate number 2): -0.99; Growth Rate (Fibroblast; 12 h, replicate number 2): 0.5; Growth Rate (Fibroblast; 18 h, replicate number 1): -0.63; Growth Rate (Fibroblast; 24 h, replicate number 1): 0.21; Growth Rate (HEK-293T; 12 h, replicate number 1): -0.65; Growth Rate (HEK-293T; 24 h, replicate number 1): -0.03; Growth Rate (HEK-293T; 24 h, replicate number 2): 0.13
4 | O=C(NCC1(N2CCN(c3ccccc3)CC2)CCOCC1)c1cccnc1Sc1ccccc1 | -0.32 | 0.97 | 0.73 | 0.92 | 0.93 |  | 0.02 | -1 | 0.97 | 0.95 |  |  |  |  |  |  |  |  |  | -0.38 | Growth Rate (U2OS; 0 h, replicate number 1): 0.14; Growth Rate (U2OS; 12 h, replicate number 2): 0.86; Growth Rate (Fibroblast; 18 h, replicate number 1): -0.49
5 | c1cc(-c2cnn3cc(-c4ccc(N5CCNCC5)cc4)cnc23)c2cccnc2c1 |  | -0.87 | -0.62 | -0.48 | -0.43 | -0.9 | -0.19 | -1 | -0.92 | -0.69 | -0.57 | -0.49 | -0.74 | -0.55 | -0.69 | -0.96 | -0.77 | -0.44 | -0.58 | 0.43 | Growth Rate (U2OS; 0 h, replicate number 1): -0.73; Growth Rate (U2OS; 12 h, replicate number 2): -0.61; Growth Rate (Fibroblast; 6 h, replicate number 2): -1; Growth Rate (Fibroblast; 12 h, replicate number 2): -0.91; Growth Rate (Fibroblast; 18 h, replicate number 1): -0.44; Growth Rate (Fibroblast; 24 h, replicate number 1): 0.25; Growth Rate (HEK-293T; 12 h, replicate number 1): -0.55; Growth Rate (HEK-293T; 24 h, replicate number 1): -0.34; Growth Rate (HEK-293T; 24 h, replicate number 2): -0.45
6 | COc1cc(OC)c(NC(=O)Nc2cc(C)on2)cc1Cl |  |  | 0.98 | 0.82 |  | -0.96 | 0.03 | -1 | 0.72 |  | 0.96 |  |  |  |  |  |  |  |  | 0.7 | 
7 | O=C(NCc1cccc(O)c1)Nc1nc(-c2ccncc2)cs1 | -0.94 |  |  |  | 1 | -0.55 | -1 |  | -0.16 |  |  | 0.88 |  |  |  |  |  |  |  | -0.82 | 
8 | N#Cc1ccnc(Nc2cc(C3CCN(C4COC4)CC3)cc(N3CCC(F)(F)C3)n2)c1 | -1 | 0.88 | 0.29 | 0.46 | 0.44 |  |  |  | -0.35 | 0.44 | 0.22 | 0.18 | 0.21 | 0.43 | 0.58 | -0.9 | -0.54 | 0.46 | -0.37 |  | Growth Rate (U2OS; 12 h, replicate number 2): 0.38; Growth Rate (Fibroblast; 6 h, replicate number 2): -1; Growth Rate (Fibroblast; 12 h, replicate number 2): -0.47; Growth Rate (Fibroblast; 18 h, replicate number 1): -0.85; Growth Rate (Fibroblast; 24 h, replicate number 1): -0.29; Growth Rate (HEK-293T; 12 h, replicate number 1): 0.85; Growth Rate (HEK-293T; 24 h, replicate number 1): 0.44; Growth Rate (HEK-293T; 24 h, replicate number 2): -0.26

Source: ChEMBL document CHEMBL5303304, “EUbOPEN Chemogenomics Library - IncuCyte” (2023)
